# Like-named read-outs stand apart in the source and are kept apart here.
# What was measured:
# Assay in all cases: Cell proliferation, CTG 3D, 7 d
# Assay type in all cases: cell-based
# HCT-15 = details: Homo sapiens
# Description: (§1) On Day-1, cells were plated in 384-well round-bottom ultra-low adhesion plates (cat. Corning 3830, with cell density adjusted according to Table 3. The assay plate was then centrifuged at 1000 rpm for 1 minute to ensure even distribution of cells. The plate was incubated at 37° C. in a 5% CO2 atmosphere (It is worth noting that for SW1271 cell plate, it needs to be incubated in an incubator without additional CO2).
# (§2) On Day 0, Example 24 or A122 was added to each well using a Tecan HP D300E dispenser, with a 3-fold dilution across 9 doses. The final concentration of DMSO was normalized to 0.2%. The assay plate was then centrifuged at 1000 rpm for 1 minute and incubated for 7 days.
# (§3) On Day 7, CellTiter-Glo (CTG) 3D reagent (Promega G9683) was dispensed into each well of a 384-well plate using a multi-drop dispenser (Thermo Scientific 66413). A liquid handling automation workstation (Bravo with a 384-well head) was used to mix the CTG reagents. Plates were left on a shaker for 30 minutes at 450 rpm, shielded from light.
# (§4) For data analysis, the XL-fit software (Supplier: ID Business Solutions Ltd., Software version: XL fit 5.0) was utilized. The percentage of inhibition was calculated using the formula: Inhibition %=(Max-Sample value)/(Max-Min)×100. Curve fitting was performed as follows: For complete dose-response curves, the relative IC50 was reported from the fit. For incomplete curves, if minimal inhibition was greater than 50%, an IC50 less than the lowest compound concentration was reported. If minimal inhibition was between 20% and 50%, the bottom was locked at 0% and the IC50 was reported. If maximal inhibition was less than 50%, an IC50 greater than the highest compound concentration was reported.
# OCI-AML-3 = details: Homo sapiens
# Description: as §1, §2, §3, §4
# UMC-11 = details: Homo sapiens; UMC-11, KRAS (WT ampl)
# Description: as §1, §2, §3, §4
# NCI-H2122 = details: Homo sapiens; NCI-H2122, KRAS (G12C)
# Description: as §1, §2, §3, §4
# RL95-2 = details: Homo sapiens
# Description: as §1, §2, §3, §4
# KMS-28BM = details: Homo sapiens
# Description: as §1, §2, §3, §4
# AsPc-1 = details: Homo sapiens, ASPC1; AsPc-1, KRAS (G12D)
# Description: as §1, §2, §3, §4
# MDA-MB-134-VI = details: Homo sapiens
# Description: as §1, §2, §3, §4
# SW 480 = details: Homo sapiens, SW480; SW 480, KRAS (G12V)
# Description: as §1, §2, §3, §4
# Capan-2 = details: Homo sapiens
# Description: as §1, §2, §3, §4
# NCI-H1734 = details: Homo sapiens
# Description: as §1, §2, §3, §4
# TYK-nu = details: Homo sapiens
# Description: as §1, §2, §3, §4
# Panc 02.13 = details: Homo sapiens
# Description: as §1, §2, §3, §4
# KU1919 = details: Homo sapiens, KU-19-19
# Description: as §1, §2, §3, §4
# GA-10 = details: Homo sapiens; GA-10, NRAS (p.G12V)
# Description: as §1, §2, §3, §4
# SK-N-SH = details: Homo sapiens
# Description: as §1, §2, §3, §4
# NCI-H23 = details: Homo sapiens; NCI-H23, KRAS (G12C)
# Description: as §1, §2, §3, §4
# RD = details: Homo sapiens
# Description: as §1, §2, §3, §4
# NCI-H727 = details: Homo sapiens; NCI-H727, KRAS (G12V)
# Description: as §1, §2, §3, §4
# SW 900 = details: Homo sapiens, SW900; SW 900, KRAS (G12V)
# Description: as §1, §2, §3, §4
# NCI-H650 = details: Homo sapiens
# Description: as §1, §2, §3, §4
# SW 1990 = details: Homo sapiens, SW1990; SW 1990, KRAS (G12D)
# Description: as §1, §2, §3, §4
# MKN-1 = details: Homo sapiens; MKN-1, KRAS (WT ampl)
# Description: as §1, §2, §3, §4
# SK-CO-1 = details: Homo sapiens; SK-CO-1, KRAS (G12V)
# Description: as §1, §2, §3, §4
# COR-L23 = details: Homo sapiens; COR-L23, KRAS (G12V)
# Description: as §1, §2, §3, §4
# LoVo = details: Homo sapiens
# Description: as §1, §2, §3, §4
# Calu-6 = details: Homo sapiens
# Description: as §1, §2, §3, §4
# PANC-1 = details: Homo sapiens; PANC-1, KRAS (G12D)
# Description: as §1, §2, §3, §4
structure (smiles),measurement,setting,value
"CCn1c(-c2cc(N3CCN(C)CC3)cnc2[C@H](C)OC)c2c3cc(ccc31)-c1csc(n1)C[C@H](NC(=O)[C@H]1C[C@@H]1C)C(=O)N1CCC[C@H](N1)C(=O)OCC(C)(C)O2 [Example A122, reference compound]",IC50,HCT-15; HCT-15,100 nM
same,IC50,OCI-AML-3; OCI-AML-3,8.9 nM
same,IC50,UMC-11,100 nM
same,IC50,NCI-H2122,0.62 nM
same,IC50,RL95-2; RL95-2,2.6 nM
same,IC50,KMS-28BM,0.88 nM
same,IC50,AsPc-1,0.55 nM
same,IC50,MDA-MB-134-VI,2.6 nM
same,IC50,SW 480,2 nM
same,IC50,"Capan-2; Capan-2, KRAS (G12V), read-out: IC50",0.59 nM
same,IC50,NCI-H1734; NCI-H1734,1.3 nM
same,IC50,TYK-nu,0.68 nM
same,IC50,Panc 02.13,15 nM
same,IC50,KU1919,2.8 nM
same,IC50,GA-10,1000 nM
same,IC50,SK-N-SH,580 nM
same,IC50,NCI-H23,0.33 nM
same,IC50,RD,0.7 nM
same,IC50,NCI-H727,0.16 nM
same,IC50,SW 900,0.23 nM
same,IC50,NCI-H650,9.6 nM
same,IC50,SW 1990,1.5 nM
same,IC50,MKN-1,40 nM
same,IC50,SK-CO-1,0.33 nM
same,IC50,COR-L23,0.78 nM
same,IC50,LoVo,0.36 nM
same,IC50,Calu-6; Calu-6,1.3 nM
same,IC50,PANC-1,0.68 nM
"CO[C@@H](C)c1ncc(N2CCN(C)CC2)cc1-c1c2c3cc(cc4c3n1CCC4)-c1csc(n1)C[C@H](NC(=O)[C@H]1[C@H](C)[C@@H]1C)C(=O)N1CCC[C@H](N1)C(=O)OCC(C)(C)C2 (atropisomer, axis not shown; (M)) [Example 24, (1r,2R,3S)-N-[(7S,13S)-(20M)-20-[2-[(1S)-1-methoxyethyl]-5-(4-methylpiperazin-1-yl)-3-pyridyl]-17,17-dimethyl-8,14-dioxo-15-oxa-4-thia-9,21,30,31-tetrazahexacyclo[23.3.1.1^2,5.1^9,13.0^19,27.0^21,26]hentriaconta-1 (28),2,5 (31), 19,25 (29),26-hexaen-7-yl]-2,3-dimethyl-cyclopropanecarboxamide]",IC50,"HCT-15; HCT-15, KRAS (G13D), read-out: IC50",100 nM
same,IC50,"OCI-AML-3; OCI-AML-3, NRAS (p.Q61L), read-out: IC50",3.3 nM
same,IC50,UMC-11,100 nM
same,IC50,NCI-H2122,0.39 nM
same,IC50,"RL95-2; RL95-2, HRAS (p.Q61H), read-out: IC50",1.3 nM
same,IC50,"KMS-28BM; KRAS (G12A), read-out: IC50",0.63 nM
same,IC50,AsPc-1,0.65 nM
same,IC50,"MDA-MB-134-VI; KRAS (G12R), read-out: IC50",1.5 nM
same,IC50,SW 480,1.2 nM
same,IC50,Capan-2; Capan-2,0.23 nM
same,IC50,"NCI-H1734; NCI-H1734, KRAS (G13C), read-out: IC50",0.74 nM
same,IC50,"TYK-nu; TYK-nu, NRAS (p.G12D and p.Q61K), read-out: IC50",0.34 nM
same,IC50,"Panc 02.13; Panc 02.13, KRAS (Q61R), read-out: IC50",4 nM
same,IC50,"KU1919; KU1919, NRAS (p.Q61R), read-out: IC50",2.2 nM
same,IC50,GA-10,1000 nM
same,IC50,"SK-N-SH; NRAS (p.Q61K), read-out: IC50",1000 nM
same,IC50,NCI-H23,0.17 nM
same,IC50,"RD; NRAS (p.Q61H), read-out: IC50",0.36 nM
same,IC50,NCI-H727,0.14 nM
same,IC50,SW 900,0.28 nM
same,IC50,NCI-H650,2.3 nM
same,IC50,SW 1990,1.6 nM
same,IC50,MKN-1,28 nM
same,IC50,SK-CO-1,0.18 nM
same,IC50,COR-L23,0.53 nM
same,IC50,"LoVo; KRAS (G13D), read-out: IC50",0.55 nM
same,IC50,"Calu-6; Calu-6, KRAS (Q61K), read-out: IC50",0.65 nM
same,IC50,PANC-1,0.95 nM
